The source of these data is publication PMC10685318, “Trans-cyclosulfamidate mannose-configured cyclitol allows isoform-dependent inhibition of GH47 α-D-mannosidases through a bump–hole strategy” (Chemical Science, 2023).

The nature of data set [1]: Chemical stability of the final compounds on storage. The format is physicochemical. From the text: 1,6-Cis-manno-cyclosulfate, 4, and 1,6-trans-manno-cyclosulfate, 5, were synthesized from mannose-configured cis-diol and trans-diol, respectively (ESI, Scheme S1 ^†).
Data set [2] has as its target T1, CkGH47 L310S (Caulobacter sp. K31, UniProt B0SWV2, L310S).
T1 sequence (B0SWV2 25-462 L310S): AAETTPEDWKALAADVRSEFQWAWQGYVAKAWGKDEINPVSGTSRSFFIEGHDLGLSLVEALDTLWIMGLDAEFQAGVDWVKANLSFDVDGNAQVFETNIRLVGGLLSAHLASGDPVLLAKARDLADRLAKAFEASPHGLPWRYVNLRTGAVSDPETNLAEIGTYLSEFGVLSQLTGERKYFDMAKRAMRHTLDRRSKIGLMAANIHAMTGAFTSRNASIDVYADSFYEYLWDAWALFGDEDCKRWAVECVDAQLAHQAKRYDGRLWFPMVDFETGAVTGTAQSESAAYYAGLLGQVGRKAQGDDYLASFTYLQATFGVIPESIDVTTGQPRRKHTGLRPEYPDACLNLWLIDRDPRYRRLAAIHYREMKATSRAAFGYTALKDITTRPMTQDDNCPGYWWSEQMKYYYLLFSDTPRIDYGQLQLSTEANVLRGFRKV
Nature of the data set: Isothermal titration calorimetry. The format is binding, Caulobacter K31 strain. From the text: (§1) Trans-Cyclosulfamidate Cyclitols Males et al.
Figure S6. Isothermal titration calorimetry binding thermodynamics between CkGH47 L310S and 6. A. raw data injection profile;
B. Titration curve. N = 1.01 ± 0.02 sites, ΔH = -7.39 ± 0.19 kcal mol-1.
Figure S7. Overlay of the human GH47 α-1,2-mannosidase structures highlighting the conserved active site. Crystal structure of ERManI is in orange (PDB ID: 1FMI); the remaining structures were predicted by Alphafold[5], in light blue is GMIB, in dark blue is GMIA, in purple is GMIC, in yellow is EDEM2, in red is EDEM3 and in pink is EDEM1. A. The crystal structure from this work of CkGH47 and 3 is in green. Residues annotated according to the numbering of CkGH47. B. The human GH47 enzymes are superposed minus the CkGH47 enzyme; the residues are annotated according to the numbering of HsERManI. […]
(§2) 2.1 Biochemical and biological methods
(§3) To obtain Michaelis-Menten kinetics
(§4) Lastly, to achieve an inhibition constant, the
(§5) The gradient of the graph, V0/Vi
(§6) After taking each time point, the sample was heat denatured at 95 °C for 5 minutes. The reactions were conducted in triplicate and averaged. […]
(§7) microplate spectrophotometer (BioTek). The mannose detection kit (Megazyme) was used to detect […]
(§8) dehydrogenase, was monitored at 340 nm. The absorbance after hexokinase was added to the mixture […]
(§9) 2.1.2 Isothermal titration calorimetry
(§10) MicroCal ITC200 calorimeter at 25 °C over 20 injections. The experiment was duplicated to obtain a […]
(§11) the MicroCal PEAK-ITC analysis software.
(§12) 2.2 Crystallographic data collection and refinement of CkGH47
(§13) 3′ and the reverse primer was 5′-[…]-3′. Protein production and purification was followed as described previously.[3]
(§14) Reference data in the form of a
(§15) Refinement of the model was conducted […]
(§16) conformation was conducted using […]. Details of the data collection and refinement statistics […]
Figures of the structure were produced by using CCP4mg.
(In ITC the heat of successive injections is recorded.)

The target of the next data set is CkGH47 WT (Caulobacter sp. K31, UniProt B0SWV2). Nature of the data set: Inhibition of CkGH47 WT monitored by enzymatic conversion of α-1,2-mannobiose to mannose. The format is biochemical, Caulobacter K31 strain. Particulars: for inhibition of the wild-type GH47 model enzyme: even at high inhibitor concentrations. As for the experimental part:
as §1
Figure S4. Inhibition of CkGH47 by 6 monitored by the enzymatic conversion of mannobiose to mannose. 3 concentrations of the […]
and the reaction was incubated for 1 hour at 22 °C. The enzyme was heat denatured (90 °C for 5 minutes). Using the mannose detection kit, NADPH production at 340 nm was measured and converted to mannose concentration using a standard curve of […]
Figure S5. Docking of 6, in pink, into the crystal structure of Caulobacter GH47 (PDB ID: 4AYO), in gold, showing the distance between the oxygen of 6 and L310. Left: 6 was docked into the CkGH47 enzyme active site by least squares fit superposition in coot against the CkGH47 and kifunensine complex (PDB ID 5NE5). Right: Position of CkGH47 WT crystal structures of the inhibitors 6 (pink) and kifunensine (green); native is shown in gold (PDB ID: 4AYO) and CkGH47 in complex with kifunensine is shown in orange (PDB ID: 5NE5); there are 2 alternate conformations of leucine each with 50% occupancy in the crystal structure. […]
as §2, §3, §4, §5, §6, §7, §8, §9, §10, §11, §12, §13, §14, §15, §16

The target in data set [3] is T1, CkGH47 L310S. Put plainly: Inhibition constant (V0/Vi vs inhibitor, mannose detection kit) with the CkGH47 L310S mutant. The format is biochemical, Caulobacter K31 strain. As for the experimental part: Building on this kinetic assay, we obtained an inhibition constant by pre-incubation of the enzyme and 6 for 30 minutes and then following the same time-point procedure as for the Michaelis–Menten assay. […] Similarly, a dissociation constant of 970 nM was obtained using isothermal titration calorimetry (Fig. S6 ^†). To understand the interactions between 6 and CkGH47 L310S regarding the introduced hole, a crystal structure complex was obtained (statistics in Table S2 ^†). Trans-cyclic sulfamidate 6 binds similarly to other conformationally restricted GH47 inhibitors, with additional interactions between the sulfamidate and active site residues, for example, the nitrogen and oxygen, and D249 and R363 side chains. Additionally, the introduced serine residue is indeed now in a position to hydrogen bond to the oxygen of the sulfamidate with a distance of 3.1 Å.
as §1, §2, §3, §4, §5, §6, §7, §8

Where [4] appears, read: isothermal titration calorimetry.

Sequence of CkGH47 WT (B0SWV2 entry or part of it): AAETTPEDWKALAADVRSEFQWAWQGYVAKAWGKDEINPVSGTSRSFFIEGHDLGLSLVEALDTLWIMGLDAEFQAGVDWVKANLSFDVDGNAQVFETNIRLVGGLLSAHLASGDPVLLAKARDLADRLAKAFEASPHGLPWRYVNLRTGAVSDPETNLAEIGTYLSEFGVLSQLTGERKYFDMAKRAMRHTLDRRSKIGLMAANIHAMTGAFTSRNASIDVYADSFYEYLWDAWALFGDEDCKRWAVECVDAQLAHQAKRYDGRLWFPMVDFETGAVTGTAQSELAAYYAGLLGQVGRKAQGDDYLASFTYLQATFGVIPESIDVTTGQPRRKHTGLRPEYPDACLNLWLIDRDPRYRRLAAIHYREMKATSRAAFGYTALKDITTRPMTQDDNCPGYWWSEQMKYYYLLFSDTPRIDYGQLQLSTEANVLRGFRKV

One may read the Kd as the constant that tells how readily two partners part at equilibrium. A word on the Ki: it is the dissociation constant of the complex between target and ligand, obtained from inhibition or displacement. A low value points to a stronger hold on the target. `O=S1(=O)N[C@@H]2[C@@H](O)[C@@H](O)[C@H](O)[C@@H](CO)[C@H]2O1` [compound 6, 1,6-trans-manno-cyclosulfamidate]: in data set [1], the chemical stability entry is “chemically stable”. Besides, the Kd on CkGH47 L310S [2] turned out to be 970 nM. On CkGH47 L310S [2] (setting [4]), this molecule returned an N of 1.01 ± 0.02 sites and a ΔH of -7.39 ± 0.19 kcal/mol. For the same molecule, on CkGH47 WT (after the addition of 1 mM 6), the “α-1,2-mannobiose hydrolysed by the WT GH47 mannosidase to mannose” value turned out to be 82%. Besides, the “inhibition of the wild-type GH47 model enzyme” value at CkGH47 WT is “no significant inhibition”. Besides, the “inhibition of the wild-type GH47 model enzyme” value against CkGH47 WT (listed as 1,6-trans-cyclic sulfamidate) is “does not inhibit”. Further, affinity on CkGH47 L310S [3] was put at a Ki of 574 nM.
